In patent publication US12084418B2, “Small molecule inhibitors of G(alpha)i2 protein and uses thereof” (Clark Atlanta University, Inc., priority 2020, dated 2024):
Entries after “also recorded” stand apart in the source; their conditions may differ.

Tests used:
PC3 cells [1] = test: Transwell migration assay in PC3 cells; type: cell-based, human
Description: (§1) Human prostate cancer cell lines (DU145 and PC3) were obtained from American Type Culture Collection (ATCC) (Rockville, MD). DU145 and PC3 are androgen independent cell lines, derived from brain and bone metastatic sites, respectively. They were maintained in Minimum Essential Medium, supplemented with 5% FBS, in a 5% CO2 environment at 37° C. E006AA cells are derived from localized prostate cancer in a patient. These cells were maintained in Dulbecco's Modified Eagle Medium, supplemented with 5% FBS, in a 5% CO2 environment at 37° C.
For biological assays, the compounds were dissolved in DMSO at a starting concentration of 0.05 mM (compound 12) and 0.1 mM (compounds 9a-b, 13 and 14) and then diluted in culture media to the final concentrations used for the assays.
(§2) In vitro cell migration and invasion assays were conducted using 24-well transwell inserts (8 μm). The transwell inserts were coated with […] of rat tail collagen for migration assays, and with 50 μl of a 1:4 Matrigel/Coating buffer solution for invasion assays. Cells were suspended at the appropriate density in appropriate media and treated with the inhibitors, at specific concentrations. For migration assays, EGF was used as a chemoattractant (10 ng/ml) for PC3, DU145, E006AA and SKOV3 cells; 10% FBS was used for MCF7 cells. The plates were incubated at 37° C. for 5 hours (DU145, PC3 and SKOV3), 24 hours (E006AA) or 48 hours (MCF7) for migration assays, and 48 hours for invasion assays. After fixation, the cells were stained with 3 ng/ml of DAPI and images of five non-overlapping fields were captured using Axiovert 200M, Carl Zeiss (Thornwood, NY) microscope. The number of stained nuclei were determined with automatic counting using image analysis software (ZEN 2012; Carl Zeiss). Results were expressed as migration or invasion index defined as: the average number of cells per field for test substance/the average number of cells per field for the medium control.

PC3 cells [2] = test: Cell viability assay (MTS); type: cell-based, human; conditions: 24 hours
PC3 cells [3] = test: Cell viability assay (MTS); type: cell-based, human; conditions: compound 10 μM, 24 hours
Description: FIG. 3C is a graph depicting a viability study of PC3 cells treated for 24 hours with inhibitor compounds 9b, 13 and 14, at 10 μM. MTS assays were conducted for 4 hours and the results were expressed as % of viable treated cells against the control cells. Each bar represents mean±SEM (n=3).
Cell viability assays were performed using CellTiter 96® AQueous One Solution Cell Proliferation Assay (MTS) from Promega, according to the manufacture's protocol. Briefly, 5.0×10^4 cells/well were plated in a 96 well plates and incubated in a 5% CO2 environment at 37° C. overnight. After 24 hours the medium was replaced with fresh medium, containing several compounds at the appropriate concentrations. Diluted DMSO was used as a control. MTS assays were performed after 24 hours and the absorbance read at 490 nm, using a spectrophotometer.

PC3 cells [4] = test: Transwell migration assay in PC3 cells; type: cell-based, human; conditions: absence of EGF stimulus
DU145 cells = test: Transwell migration assay in DU145 cells; type: cell-based, human; conditions: compound 10 μM
Description: as §1
as §2, with “The plates were incubated at 37° C. for 5 hours (DU145, PC3 and SKOV3), 24 hours (E006AA) or 48 hours (MCF7) for migration assays, and 48 hours for invasion assays. After fixation, the cells were stained with 3 ng/ml of DAPI and images of five non-overlapping fields were captured using Axiovert 200M, Carl Zeiss (Thornwood, NY) microscope.” left out

Gαi2 = molecular target: T1, Gαi2 (Homo sapiens, UniProt P04899); test: Immunoprecipitation of active Gαi and Western blot with anti-Gαi2 antibody in PC3 cells; type: cell-based; conditions: for activation of Gαi2 (conversion from GDP- to GTP-state): stimulus not given
T1 construct: endogenous in cells; host or cells: PC3 cells
T1 sequence (P04899 whole entry): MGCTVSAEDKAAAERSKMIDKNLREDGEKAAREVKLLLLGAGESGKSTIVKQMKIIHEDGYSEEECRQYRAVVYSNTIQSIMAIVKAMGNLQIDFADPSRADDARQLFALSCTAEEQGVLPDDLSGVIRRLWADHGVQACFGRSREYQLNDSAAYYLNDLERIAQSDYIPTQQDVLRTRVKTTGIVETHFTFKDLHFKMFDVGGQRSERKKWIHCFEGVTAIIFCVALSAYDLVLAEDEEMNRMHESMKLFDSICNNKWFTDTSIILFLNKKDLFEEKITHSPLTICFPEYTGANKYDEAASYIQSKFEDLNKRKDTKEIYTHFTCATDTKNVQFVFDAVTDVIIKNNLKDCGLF
Description: PC3 cells (3×10^6 cell/dish) were incubated with or without inhibitor compound 14 (10 μM) for 30 minutes and then treated with EGF (10 ng/ml) or oxytocin (200 nmol/L) for additional 30 minutes. Cells were lysed in ice-cold cell lysis buffer (Cell Signaling Technology) and snap-frozen in liquid nitrogen. Total cell lysates, containing approximately 1000 μg of proteins, were used for immunoprecipitation. The lysates were incubated with 1 μg of anti-active Gαi antibody, overnight at 4° C. Immunocomplexes were collected by centrifugation after incubation with protein A/G-Sepharose beads for 48 h (Santa Cruz Biotechnology) and were analyzed by Western blot analysis with specific anti-Gαi2 antibody (Abcam).
Western blot analyses were performed. Briefly, protein samples (30-35 μg proteins) were separated on 10% SDS-PAGE gels and transferred to polyvinylidene difluoride (PVDF) membranes (Millipore Corp., Bedford, Massachusetts). After blocking, the membranes were incubated with several primary antibodies, at appropriate dilutions (1:500 for Giα2; 1:3000 for α-tubulin) overnight at 4° C. After washing, the blots were incubated with appropriate secondary antibodies and developed in ECL mixture, using Syngene PXi Imaging System, according to the manufacture's manual. α-tubulin was used as loading control.

E006AA cells = test: Transwell migration assay in E006AA cells; type: cell-based, human; conditions: compound 10 μM
Description: as §1
as §2, with “The plates were incubated at 37° C. for 5 hours (DU145, PC3 and SKOV3), 24 hours (E006AA) or 48 hours (MCF7) for migration assays, and 48 hours for invasion assays. After fixation, the cells were stained with 3 ng/ml of DAPI and images of five non-overlapping fields were captured using Axiovert 200M, Carl Zeiss (Thornwood, NY) microscope.” left out

SKOV3 cells = test: Transwell migration assay in SKOV3 cells; type: cell-based, human; conditions: compound 10 μM, EGF 10 ng/ml, 5 hours
Description: (§3) Human breast adenocarcinoma cell line MCF7 and human ovarian adenocarcinoma cell line SKOV3 were obtained from American Type Culture Collection (ATCC) (Rockville, MD) and maintained in Dulbecco's Modified Eagle Medium, supplemented with 5% FBS, in a 5% CO2 environment at 37° C.
as §2, with “After fixation, the cells were stained with 3 ng/ml of DAPI and images of five non-overlapping fields were captured using Axiovert 200M, Carl Zeiss (Thornwood, NY) microscope.” left out

PC3 cells [5] = test: Transwell (Matrigel) invasion assay in PC3 cells; type: cell-based, human; conditions: compound 10 μM, 48 hours
Description: as §2

MCF7 cells = test: Transwell migration assay in MCF7 cells; type: cell-based, human; conditions: compound 10 μM, 10% FBS, 48 hours
Description: as §3
as §2, with “After fixation, the cells were stained with 3 ng/ml of DAPI and images of five non-overlapping fields were captured using Axiovert 200M, Carl Zeiss (Thornwood, NY) microscope.” left out

DU145-Gαi2-Q205L cells = test: Transwell migration assay in DU145 cells overexpressing constitutively active Gαi2 (Gαi2-Q205L); type: cell-based, human
Description: DU145 cells were seeded in 6-well plates at a density of 2.0×10^5 cells per well and transfected with pcDNA3.1-EV and pcDNA3.1-Gαi2-Q205L, using ViaFect™ transfection reagent, according to the manufacturer's protocol. Briefly, media with no antibiotics (200 μl/well) containing 2 μg of plasmids DNA were mixed with the transfection reagent (6 μl/well) and, after 20 minutes, the mixtures were added drop by drop on the cells and the cells were cultured for 48 hours. Then the cells were harvested and used for several assays.
as §2

[6] = compound 10 μM, EGF 10 ng/ml, 5 hours
[7] = compound 50 μM, in presence of EGF
[8] = compound 100 μM, in presence of EGF

Row | Structure (SMILES) | migratory capability of PC3 cells (migration index) (PC3 cells [1]; [6]) | migratory capability of PC3 cells (migration index) (PC3 cells [1]; [7]) | migratory capability of PC3 cells (migration index) (PC3 cells [1]; [8]) | cell viability (PC3 cells [2]; compound 50 μM) | cell viability (PC3 cells [2]; compound 100 μM) | cell viability (PC3 cells [3]) | migratory capability of PC3 cells (migration index) (PC3 cells [4]; compound 50 μM) | migratory capability of PC3 cells (migration index) (PC3 cells [4]; compound 100 μM) | EGF-induced migration of DU145 cells (DU145 cells) | activation of Gαi2 (conversion from GDP- to GTP-state) (Gαi2) | EGF-induced migration of E006AA cells (E006AA cells) | migration of SKOV3 cells (SKOV3 cells) | invasive capability of PC3 cells (invasion index) (PC3 cells [5]; in response to EGF 10 ng/ml) | invasive capability of PC3 cells (invasion index) (PC3 cells [5]; in response to FBS (5%)) | levels of active Gαi2 after stimulation with OXT (Gαi2; PC3 cells, OXT 200 nmol/L 30 minutes, compound 14 at 10 μM) | migration of MCF7 cells (MCF7 cells) | EGF-stimulated cell migration of DU145-Gαi2-Q205L cells (DU145-Gαi2-Q205L cells; compound 10 μM, EGF 10 ng/ml) | basal cell migration of DU145-Gαi2-Q205L cells (DU145-Gαi2-Q205L cells; compound 10 μM, basal) | migration of DU145-Gαi2-Q205L cells (DU145-Gαi2-Q205L cells; stimulus and concentration not stated at the place (FIG. 5B))
1 | C/C(=N\c1ccc(O)cc1)c1sc2ccccc2c1O [Compound 12, (E)-2-(1-((4-hydroxyphenyl)imino)ethyl)benzo[b]thiophen-3-ol, reference compound] | had no effect on the migration | caused a reduction in the migratory capability | caused a reduction in the migratory capability | cytotoxic | cytotoxic | had no effect on cell viability | caused a reduction in the migratory capability | caused a reduction in the migratory capability |  |  |  |  |  |  |  |  |  |  | 
2 | C/C(=N\c1ccc(O)cc1)c1cc2ccccc2s1 [Compound 13, (E)-4-((1-(benzo[b]thiophen-2-yl)ethylidene)amino)phenol] | significantly decreased EGF-induced migratory capability; also recorded: significantly reduced the migratory capability | reduced the migratory capability | reduced the migratory capability | cytotoxic | cytotoxic | had no effect on cell viability; also recorded: did not affect cell viability |  |  | reduced the EGF-induced migration | impaired activation of Gαi2 | reduced the EGF-induced migration |  |  |  |  |  |  |  | 
3 | C/C(=N\c1ccc(O)cc1)c1cc2ccccc2n1C [Compound 14, (E)-4-((1-(1-methyl-1H-indol-2-yl)ethylidene)amino)phenol] | significantly decreased EGF-induced migratory capability; also recorded: significantly reduced the migratory capability | reduced the migratory capability | reduced the migratory capability | cytotoxic | cytotoxic | had no effect on cell viability; also recorded: did not affect cell viability |  |  | reduced the EGF-induced migration | reduced activation of Gαi2; also recorded: impaired activation of Gαi2 | reduced the EGF-induced migration | impaired the migratory capability; also recorded: significantly reduced migration | significantly reduced; also recorded: inhibited | significantly reduced | the levels of active Gαi2 were reduced | impaired the migratory capability; also recorded: significantly reduced migration | attenuation | attenuation | significantly reduced migration
